Measured values from patent US9133143B2, “(3-fluoro-2-hydroxy)propyl-functionalized aryl derivatives or pharmaceutically acceptable salts thereof, method for preparing same, and pharmaceutical composition containing same as active ingredient for the diagnosis or treatment of neurodegenerative brain diseases” (FUTURECHEM CO., LTD., priority 2009, dated 2015).

Assays:
[1] = biological target: T1, β-Amyloid (Aβ1-42) fibrils (Homo sapiens, UniProt P05067); experiment: Test of inhibitory binding ability against [125I]TZDM on β-amyloid fibrils; conditions: Aβ1-42 fibrils 10 nM, [125I]TZDM 0.05 nM, room temperature 3 hours; read-out: Ki, binding affinity (Ki) for [125I]TZDM (48)
T1 construct: β-Amyloid peptide (Aβ1-42, Bachem, 1 mg); purchased Bachem
T1 sequence (P05067 672-713 limits assumed): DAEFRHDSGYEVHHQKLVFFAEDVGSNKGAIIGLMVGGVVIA
Protocol: β-Amyloid peptide (Aβ1-42, Bachem, 1 mg) was completely dissolved in DMSO (1 mL) and then mixed well after adding phosphate buffer (pH 7.4, 9 mL). β-Amyloid fibrils produced by incubating at 37° C. for 60 minutes were distributed into e-tubes, 0.5 mL each, and stored in a refrigerator at −80° C.
10% ethanol (0.850 mL) was placed in a 12 mm×75 mm borosilicate test tube. […] Then, after adding [^125I]TZDM (48) (50 μL, final reaction concentration=0.05 nM), the resulting mixture was subjected to incubation at room temperature for 3 hours. 3 Hours later, after separating [^125I]TZDM (48) bound to the β-amyloid (Aβ1-42) fibrils from unbound [^125I]TZDM (48) using a cell harvester, gamma radiation was measured using a gamma counter. 2 μM ThT was used for testing of non-specific binding.

[2] = Test of in vivo distribution of F-18-labeled compounds (concentration in brain, passage through blood-brain barrier); design: Concentration in brain of rats, At 2 minutes ([2 min]) / Concentration in brain of rats, At 30 minutes ([30 min]): unit not given here; conditions: SD rats; for Concentration in brain of rats, Highest ([peak]) / Time of highest concentration in brain (in parentheses): F-18-labeled compound; for Initial brain inflow: at 2 minutes; for [peak]/[30 min] / [2 min]/[30 min]: ratio of brain concentrations; for [2 min]/[30 min]: value smaller than 1 = cannot pass the blood-brain barrier well
Protocol: In order to test the passing of the aryl derivative with the (3-fluoro-2-hydroxy)propyl group according to the present disclosure through the blood-brain barrier, the following experiment was carried out.
After administering the F-18-labeled aryl derivatives prepared in Examples 10 to 13 or 2-(4-(N-monomethyl)aminophenyl)-6-(3-[^18F]fluoropropoxy)benzothiophene with no hydroxyl group, as control, to SD rats, peak concentration in the brain and concentrations at 2 minutes ([2 min]) and 30 minutes ([30 min]) were measured and pharmacokinetic properties were quantitatively compared.
A larger value indicates easier passage through the blood-brain barrier.

SMILES	Ki [1] [pM]	Concentration in brain of rats, At 2 minutes ([2 min]) [2]	Concentration in brain of rats, At 30 minutes ([30 min]) [2]	Concentration in brain of rats, Highest ([peak]) [2]	Time of highest concentration in brain (in parentheses) [2] [s]	[peak]/[30 min] [2]	further results
CNc1ccc(-c2cc3ccc(OCC(O)CF)cc3s2)cc1 (racemic) [Example 1, 2-[4-(N-monomethyl)aminophenyl]-6-[(R/S)-3-fluoro-2-hydroxypropoxy]benzothiophene]	1200	–	–	–	–	–	–
CNc1ccc(-c2cc3ccc(OCC(O)CF)cc3s2)cn1 (racemic) [Example 2, 2-[2-(N-monomethyl)aminopyridin-5-yl]-6-[(R/S)-3-fluoro-2-hydroxypropoxy]benzothiophene]	490	–	–	–	–	–	–
CNc1ccc(-c2cc3ccc(OCC(O)CF)cc3s2)nn1 (racemic) [Example 5, 2-[3-(N-monomethyl)aminopyridazin-6-yl]-6-[(R/S)-3-fluoro-2-hydroxypropoxy]benzothiophene]	420	–	–	–	–	–	–
CNc1ccc(-c2nc3ccc(OCC(O)CF)cc3s2)cc1 (racemic) [Example 6, 2-[4-(N-monomethyl)aminophenyl]-6-[(R/S)-3-fluoro-2-hydroxypropoxy]benzothiazole]	1060	–	–	–	–	–	–
CNc1ccc(-c2cc3ccc(OCC(O)C[18F])cc3s2)cn1 (racemic) [Example 10, 2-[2-(N-monomethyl)aminopyridin-5-yl]-6-[(R/S)-3-[^18F]fluoro-2-hydroxypropoxy]benzothiophene]	–	16.5	2.2	22.4	30	10.3	[2 min]/[30 min] value relative to that of the compound with no hydroxyl group at the propyl residue [2]: 8.1 times; Initial brain inflow [2]: very rapid; [2 min]/[30 min] [2]: 7.5
CNc1cccc(-c2nc3ccc(OCC(O)C[18F])cc3s2)c1 (racemic) [Example 12, 2-[3-(N-monomethyl)aminophenyl]-6-[(R/S)-3-[^18F]fluoro-2-hydroxypropoxy]benzothiazole]	–	15.7	2.9	22.6	25	7.7	–
CNc1ccc(-c2nc3ccc(OCC(O)C[18F])cc3s2)cn1 (racemic) [Example 13, 2-[2-(N-monomethyl)aminopyridin-5-yl]-6-[(R/S)-3-[^18F]fluoro-2-hydroxypropoxy]benzothiazole]	–	6.5	1.0	11.1	45	10.8	–
CNc1ccc(-c2cc3ccc(OCCC[18F])cc3s2)cc1 [Control, 2-(4-(N-monomethyl)aminophenyl)-6-(3-[^18F]fluoropropoxy)benzothiophene, reference compound]	–	2.02	2.18	–	–	–	Initial brain inflow [2]: very low; [2 min]/[30 min] [2]: 0.93; [2 min]/[30 min] ([2]; listed as 2-[4-(N-monomethyl)aminophenyl]-6-β-[^18F]fluoropropoxy)benzothiophene): less than or equal to 1
CNc1ccc(-c2nc3ccc(OC[C@H](O)CF)cc3s2)cn1 [Example 8, 2-[2-(N-monomethyl)aminopyridin-5-yl]-6-[(S)-3-fluoro-2-hydroxypropoxy]benzothiazole]	160	–	–	–	–	–	–
